Measurements reported in ChEMBL document CHEMBL1129576, “Nucleosides and nucleotides. 158. 1-(3-C-ethynyl-beta-D-ribo-pentofuranosyl)-cytosine, 1-(3-C-ethynyl-beta-D-ribo-pentofuranosyl)uracil, and their nucleobase analogues as new potential multifunctional antitumor nucleosides with a broad spectrum of activity” (J Med Chem, 1996).
Values belong to the compound of their own block, whether it stands above or below them.

Experiments:
[1] = tested on: L1210; assay: In vitro tumor cell growth inhibitory activity against mouse leukemia L1210 cell lines.; type: functional, cell-based
[2] = tested on: KB; assay: In vitro tumor cell growth inhibitory activity against human nasopharyngeal KB cell lines; type: functional, cell-based
[3] = tested on: NCI-H417; assay: In vitro tumor cell growth inhibitory activity against Human lung small-cell carcinoma cell NCI-H-417; type: functional, cell-based
[4] = tested on: PC10; assay: In vitro tumor cell growth inhibitory activity against Human lung (adenocarcinoma) cell lines PC-10; type: functional, cell-based
[5] = tested on: KATO III stomach cancer cell line; assay: In vitro tumor cell growth inhibitory activity of Human stomach (adenocarcinoma) cell lines. KATO-III; type: functional, cell-based
[6] = tested on: HCT-15; assay: In vitro tumor cell growth inhibitory activity against HCT-15; type: functional, cell-based; conditions: Homo sapiens
[7] = tested on: PANC-1; assay: In vitro tumor cell growth inhibitory activity against Human pancreas (adenocarcinoma) cell lines. PANC-1; type: functional, cell-based
[8] = tested on: NCI-H82 (Homo sapiens); assay: In vitro tumor cell growth inhibitory activity against Human lung small-cell carcinoma cellc) NCI-H-82
[9] = tested on: A-375; assay: In vitro tumor cell growth inhibitory activity against Human melanoma cell lines A375; type: functional, cell-based
[10] = tested on: MDA-MB-231; assay: In vitro tumor cell growth inhibitory activity against Human breast (adenocarcinoma) cell lines. […]; type: functional, cell-based
[11] = tested on: HOS; assay: In vitro tumor cell growth inhibitory activity against Human osteosarcoma cell lines. HOS; type: functional, cell-based
[12] = tested on: KK-47 cell line; assay: In vitro tumor cell growth inhibitory activity against Human bladder carcinoma cell lines. kK-47; type: functional, cell-based
[13] = tested on: YMB-1-E; assay: In vitro tumor cell growth inhibitory activity against Human breast (adenocarcinoma) cell lines YMB-1-E.; type: functional, cell-based
[14] = tested on: QG-96; assay: In vitro tumor cell growth inhibitory activity against Human lung small-cell carcinoma cellb) QG-96; type: functional, cell-based
[15] = tested on: HT-1080; assay: In vitro tumor cell growth inhibitory activity against Human fibrosarcoma HT1080 cell lines.; type: functional, cell-based
[16] = tested on: QG-90; assay: In vitro tumor cell growth inhibitory activity against Human lung small-cell carcinoma cell lines. QG-90; type: functional, cell-based
[17] = tested on: A-431; assay: In vitro tumor cell growth inhibitory activity against Human […] A431 cell lines; type: functional, cell-based
[18] = tested on: NUGC-4; assay: In vitro tumor cell growth inhibitory activity of Human stomach (adenocarcinoma) cell lines. NUGC-4; type: functional, cell-based
[19] = tested on: Mus musculus; assay: In vivo inhibitory activity against Hucc-T1 cells tumor xenograft of bile duct in nude mice at a concentration of 0.25 mg/kg for 10 days; type: functional
[20] = tested on: NAKAJIMA; assay: In vitro tumor cell growth inhibitory activity against Human stomach (adenocarcinoma) cell lines. h) NAKAJIMA; type: functional, cell-based
[21] = tested on: MKN-28; assay: In vitro tumor cell growth inhibitory activity against Human stomach (adenocarcinoma) cell lines. MKN-28; type: functional, cell-based
[22] = tested on: MG-63; assay: In vitro tumor cell growth inhibitory activity against Human osteosarcoma cell lines MG-63.; type: functional, cell-based
[23] = tested on: SW480; assay: In vitro tumor cell growth inhibitory activity against i Human colon (adenocarcinoma) cell lines. SW-480; type: functional, cell-based
[24] = tested on: Mus musculus; assay: In vivo inhibitory activity against H-31 cells tumor xenograft of breast in nude mice at a concentration of 0.25 mg/kg for 10 days; type: functional
[25] = tested on: PC-9; assay: In vitro tumor cell growth inhibitory activity against Human lung (adenocarcinoma) cell lines PC-9; type: functional, cell-based
[26] = tested on: fLS; assay: In vitro tumor cell growth inhibitory activity of Human stomach (adenocarcinoma) cell lines. fLS; type: functional, cell-based
[27] = tested on: Mus musculus; assay: In vivo tumor cell growth inhibitory activity of CO-3 tumor xenograft of […] in nude mice at a concentration of 0.25 mg/kg for 10 days; type: functional
[28] = In vitro tumor cell growth inhibitory activity against Human stomach (adenocarcinoma) cell lines STSA-1
[29] = tested on: MCF7; assay: In vitro tumor cell growth inhibitory activity against Human breast (adenocarcinoma) cell lines. MCF-7; type: functional, cell-based
[30] = tested on: SW48; assay: In vitro tumor cell growth inhibitory activity against i Human colon (adenocarcinoma) cell lines. SW-48; type: functional, cell-based
[31] = tested on: Mus musculus; assay: In vivo inhibitory activity against DLD-1 tumor xenograft of colon in nude mice at a concentration of 0.25 mg/kg for 10 days; type: functional
[32] = tested on: QG-56; assay: In vitro tumor cell growth inhibitory activity against Human lung squamous-cell carcinoma cell linesQG-56; type: functional, cell-based
[33] = tested on: Mus musculus; assay: In vivo tumor cell growth inhibitory activity against NUGC-3 tumor xenograft of stomach in nude mice at a concentration of 0.25 mg/kg for 10 days; type: functional
[34] = tested on: Mus musculus; assay: In vivo tumor cell growth inhibitory activity against CO-3 tumor xenograft of colon in nude mice at a concentration of 0.25 mg/kg for 10 days; type: functional
[35] = In vitro tumor cell growth inhibitory activity against Human lung squamous-cell carcinoma cell lines QG-95; type: functional
[36] = tested on: COLO 320DM; assay: In vitro tumor cell growth inhibitory activity against i Human colon (adenocarcinoma) cell lines. COLO 320DM; type: functional, cell-based
[37] = tested on: ST-KM-1; assay: In vitro tumor cell growth inhibitory activity against Human stomach (adenocarcinoma) cell linesST-KM; type: functional, cell-based
[38] = tested on: Lu-65; assay: In vitro tumor cell growth inhibitory activity against Human lung large-cell carcinoma Lu-65 cell lines.; type: functional, cell-based
[39] = tested on: Mus musculus; assay: In vivo tumor cell growth inhibitory activity of H-81 tumor xenograft of stomach in nude mice at a concentration of 0.25 mg/kg for 10 days; type: functional
[40] = tested on: MIA PaCa-2 (Homo sapiens); assay: In vitro tumor cell growth inhibitory activity against Human pancreas (adenocarcinoma) cell Mia-PaCa-2
[41] = tested on: PC-8; assay: In vitro tumor cell growth inhibitory activity against Human lung (adenocarcinoma) cell lines. PC-8; type: functional, cell-based
[42] = tested on: Mus musculus; assay: In vivo tumor cell growth inhibitory activity against KM12C tumor xenograft of […] in nude mice at a concentration of 0.25 mg/kg for 10 days; type: functional
[43] = tested on: MKN-45 (Homo sapiens); assay: In vitro tumor cell growth inhibitory activity against Human stomach (adenocarcinoma) cell lines. MKN-45
[44] = tested on: T-24; assay: In vitro tumor cell growth inhibitory activity against Human bladder carcinoma cell lines. T24; type: functional, cell-based
[45] = tested on: Mus musculus; assay: In vivo inhibitory activity against PAN-12 tumor xenograft of pancreas in nude mice at a concentration of 0.25 mg/kg for 10 days; type: functional
[46] = tested on: Mus musculus; assay: In vivo inhibitory activity against JRC-11 cells tumor xenograft of renal in nude mice at a concentration of 0.25 mg/kg for 10 days; type: functional
[47] = tested on: Mus musculus; assay: In vivo inhibitory activity against NUGC-3 tumor xenograft of stomach in nude mice at a concentration of 2 mg/kg for 10 days; type: functional
[48] = tested on: Mus musculus; assay: In vivo inhibitory activity against KM12C tumor xenograft of […] in nude mice at a concentration of 2 mg/kg for 10 days; type: functional
[49] = tested on: Mus musculus; assay: In vivo inhibitory activity against AZ-521 tumor xenograft of stomach in nude mice at a concentration of 2 mg/kg for 10 days; type: functional
[50] = tested on: SW48; assay: In vitro tumor cell growth inhibitory activity against Human colon (adenocarcinoma) cell lines. SW-48; type: functional, cell-based
[51] = tested on: Mus musculus; assay: In vivo inhibitory activity against JRC-11 cell tumor xenograft of renal in nude mice at a concentration of 2 mg/kg for 10 days; type: functional
[52] = tested on: SW480; assay: In vitro tumor cell growth inhibitory activity against Human colon (adenocarcinoma) cell lines. SW-480; type: functional, cell-based
[53] = tested on: Mus musculus; assay: In vivo inhibitory activity against H-31 cells tumor xenograft of breast in nude mice at a concentration of 2 mg/kg for 10 days; type: functional
[54] = tested on: Mus musculus; assay: In vivo inhibitory activity against CO-3 tumor xenograft of […] in nude mice at a concentration of 2 mg/kg for 10 days; type: functional
[55] = tested on: Mus musculus; assay: In vivo inhibitory activity against H-81 tumor xenograft of stomach in nude mice at a concentration of 2 mg/kg for 10 days; type: functional
[56] = tested on: SK-MEL-28; assay: In vitro tumor cell growth inhibitory activity against Human melanoma cell lines. SK-MEL-28; type: functional, cell-based
[57] = tested on: A-375; assay: In vitro tumor cell growth inhibitory activity against Human melanoma cell lines. A375; type: functional, cell-based
[58] = tested on: Mus musculus; assay: In vivo inhibitory activity against BxPC-3 tumor xenograft of pancreas in nude mice at a concentration of 2 mg/kg for 10 days; type: functional
[59] = tested on: Mus musculus; assay: In vivo inhibitory activity against PAN-12 tumor xenograft of pancreas in nude mice at a concentration of 2 mg/kg for 10 days; type: functional
[60] = tested on: KB; assay: In vitro tumor cell growth inhibitory activity against Human melanoma cell lines. KB; type: functional, cell-based
[61] = tested on: Mus musculus; assay: In vivo inhibitory activity against DLD-1 tumor xenograft of […] in nude mice at a concentration of 2 mg/kg for 10 days; type: functional
[62] = tested on: Mus musculus; assay: In vivo inhibitory activity against Hucc-T1 cells tumor xenograft of bile duct in nude mice at a concentration of 2 mg/kg for 10 days; type: functional

IC50 [1]: 690 nM
IC50 [2]: 830 nM
SMILES: C#C[C@@]1(O)[C@@H](CO)O[C@@H](n2cnc3c(N)ncnc32)[C@@H]1O

IC50 [1]: > 300000 nM
IC50 [2]: > 300000 nM
SMILES: C#C[C@@]1(O)[C@@H](CO)O[C@@H](n2cc(C)c(=O)[nH]c2=O)[C@@H]1O

IC50 [3]: 43 nM
IC50 [5]: 31 nM
IC50 [6]: 8.2 nM
IC50 [7]: > 1900 nM
IC50 [8]: 120 nM
IC50 [9]: 26 nM
IC50 [10]: 24 nM
IC50 [15]: 73 nM
IC50 [17]: 33 nM
IC50 [21]: 210 nM
IC50 [23]: 260 nM
IC50 [25]: 110 nM
IC50 [1]: 16 nM
IC50 [2]: 28 nM
IC50 [28]: 150 nM
IC50 [29]: 69 nM
IC50 [30]: > 1900 nM
IC50 [36]: 20 nM
IC50 [40]: 15 nM
IC50 [43]: 8.8 nM
SMILES: C#C[C@]1(O)[C@@H](CO)O[C@@H](n2ccc(N)nc2=O)[C@@H]1O
IC50 [4]: 160 nM
IC50 [11]: 1000 nM
IC50 [12]: 120 nM
IC50 [13]: 160 nM
IC50 [14]: 390 nM
IC50 [16]: 130 nM
IC50 [18]: 24 nM
Inhibition ratio [19]: 55%
IC50 [20]: 170 nM
IC50 [22]: 150 nM
Inhibition ratio [24]: 76%
IC50 [26]: 21 nM
Inhibition ratio [27]: 80%
Inhibition ratio [31]: 78%
IC50 [32]: 45 nM
Inhibition ratio [33]: 84%
Inhibition ratio [34]: 88%
IC50 [35]: 210 nM
IC50 [37]: 47 nM
IC50 [38]: 32 nM
Inhibition ratio [39]: 92%
IC50 [41]: 90 nM
Inhibition ratio [42]: 83%
IC50 [44]: 28 nM
Inhibition ratio [45]: 75%
Inhibition ratio [46]: 73%

IC50 [3]: 110 nM
IC50 [5]: 31 nM
IC50 [6]: 75 nM
IC50 [7]: > 1900 nM
IC50 [8]: 230 nM
IC50 [10]: > 1900 nM
IC50 [15]: 160 nM
IC50 [17]: 290 nM
IC50 [21]: 65 nM
IC50 [50]: > 1900 nM
IC50 [25]: 190 nM
IC50 [1]: 130 nM
IC50 [2]: 29 nM
IC50 [52]: 340 nM
IC50 [28]: 1900 nM
IC50 [29]: 200 nM
IC50 [56]: 86 nM
IC50 [57]: 21 nM
IC50 [40]: 54 nM
IC50 [43]: 52 nM
IC50 [60]: 29 nM
SMILES: C#C[C@]1(O)[C@@H](CO)O[C@@H](n2ccc(=O)[nH]c2=O)[C@@H]1O
Inhibition ratio [47]: 54%
IC50 [4]: > 1900 nM
Inhibition ratio [48]: 81%
IC50 [11]: 1800 nM
IC50 [12]: 89 nM
IC50 [13]: > 1900 nM
Inhibition ratio [49]: 81%
IC50 [14]: 380 nM
IC50 [16]: 1000 nM
IC50 [18]: 220 nM
IC50 [20]: 780 nM
IC50 [22]: > 1900 nM
IC50 [26]: 230 nM
Inhibition ratio [51]: 75%
Inhibition ratio [53]: 82%
IC50 [32]: 150 nM
Inhibition ratio [54]: 90%
IC50 [35]: 280 nM
IC50 [37]: 86 nM
IC50 [38]: 89 nM
Inhibition ratio [55]: 92%
IC50 [41]: 330 nM
Inhibition ratio [58]: 35%
Inhibition ratio [59]: 81%
Inhibition ratio [61]: 73%
Inhibition ratio [62]: 64%
IC50 [44]: 210 nM
